# According to ChEMBL document CHEMBL5620415, “Design, synthesis and anti-hepatic fibrosis activity of novel diphenyl vitamin D receptor agonists” (Eur J Med Chem, 2023):
# The source made the active and inactive calls. The rule behind the calls is not given here.
# Columns and labels:
# [1] = molecular target: T1, Vitamin D3 receptor (Homo sapiens) (UniProt P11473); test: Binding affinity to human full-length Vitamin D receptor assessed as relative binding affinity at 1 uM incubated for 2 hrs by fluorescence polarization based competitive binding assay relative to calcipotriol
# T1 sequence (whole entry): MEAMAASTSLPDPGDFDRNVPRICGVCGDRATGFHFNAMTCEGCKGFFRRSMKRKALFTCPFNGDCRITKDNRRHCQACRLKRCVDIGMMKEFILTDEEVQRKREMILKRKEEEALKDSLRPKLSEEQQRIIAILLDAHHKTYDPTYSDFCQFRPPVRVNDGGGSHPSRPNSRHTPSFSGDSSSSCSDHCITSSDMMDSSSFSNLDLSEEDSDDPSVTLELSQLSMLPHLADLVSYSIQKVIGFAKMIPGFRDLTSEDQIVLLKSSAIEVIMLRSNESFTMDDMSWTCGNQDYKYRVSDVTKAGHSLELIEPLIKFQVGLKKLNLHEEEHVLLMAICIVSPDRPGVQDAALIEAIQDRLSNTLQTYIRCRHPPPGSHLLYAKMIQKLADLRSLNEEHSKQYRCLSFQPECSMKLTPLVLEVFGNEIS
# [2] = Cytotoxicity against human LX-2 cells by CCK-8 assay; format: toxicity, cell-based
# [3] = molecular target: T1, Vitamin D3 receptor (Homo sapiens); test: Agonist activity at Vitamin D receptor in human LX-2 cells assessed as transcriptional activity by measuring induction of CYP24A expression at 0.5 uM by RT-qPCR analysis relative to control; format: cell-based
# [4] = molecular target: T1, Vitamin D3 receptor (Homo sapiens); test: Agonist activity at Vitamin D receptor in HEK293 cells assessed as receptor transactivation incubated for 48 hrs by dual-luciferase reporter assay; format: cell-based; settings: filed as agonist, dose 0.01-1 µM
# Mus musculus [5] = test: Anti-fibrotic effect in improving CCl4-induced hepatic fibrosis C57BL/6 mouse model assessed as uniform liver parenchyma at 500 ug/kg, po five times a week for 2 weeks by qualitative ultrasound imaging analysis; format: functional, organism-based; settings: dose 500.0 µg/kg
# Mus musculus [6] = test: Anti-fibrotic effect in improving CCl4-induced hepatic fibrosis C57BL/6 mouse model assessed as decrease in liver to kidney brightness ratio at 500 ug/kg, po five times a week for 2 weeks by qualitative ultrasound imaging analysis; format: functional, organism-based; settings: dose 500.0 µg/kg
# Mus musculus [7] = test: Anti-fibrotic effect in CCl4-induced hepatic fibrosis C57BL/6 mouse model assessed as reduction in hepatic fibrosis lesions at 500 ug/kg, po five times a week for 2 weeks by Hematoxylin-Eosin (H&E) staining based assay; format: functional, organism-based; settings: dose 500.0 µg/kg
# Mus musculus [8] = test: Anti-fibrotic effect in CCl4-induced hepatic fibrosis C57BL/6 mouse model assessed as reduction the lesions at 500 ug/kg, po five times a week for 2 weeks by Hematoxylin-Eosin (H&E) staining based assay; format: functional, organism-based; settings: dose 500.0 µg/kg
# Mus musculus [9] = test: Anti-fibrotic effect in CCl4-induced hepatic fibrosis C57BL/6 mouse model assessed as decrease in inflammatory cell infiltration at 500 ug/kg, po five times a week for 2 weeks by Hematoxylin-Eosin (H&E) staining based assay; format: functional, organism-based; settings: dose 500.0 µg/kg
# Mus musculus [10] = test: Anti-fibrotic effect in CCl4-induced hepatic fibrosis C57BL/6 mouse model assessed as inhibition of proliferation of fibrous tissue at 500 ug/kg, po five times a week for 2 weeks by Hematoxylin-Eosin (H&E) staining based assay; format: functional, organism-based; settings: dose 500.0 µg/kg
# Mus musculus [11] = test: Anti-fibrotic effect in CCl4-induced hepatic fibrosis C57BL/6 mouse model assessed as inhibition of collagen deposition at 500 ug/kg, po five times a week for 2 weeks by Hematoxylin-Eosin (H&E) staining based assay; format: functional, organism-based; settings: dose 500.0 µg/kg
# Mus musculus [12] = test: Anti-fibrotic effect in CCl4-induced hepatic fibrosis C57BL/6 mouse model assessed as reduction in hepatic fibrosis lesions at 500 ug/kg, po five times a week for 2 weeks by Masson's Trichrome staining based assay; format: functional, organism-based; settings: dose 500.0 µg/kg
# Mus musculus [13] = test: Anti-fibrotic effect in CCl4-induced hepatic fibrosis C57BL/6 mouse model assessed as reduction the lesions at 500 ug/kg, po five times a week for 2 weeks by Masson's Trichrome staining based assay; format: functional, organism-based; settings: dose 500.0 µg/kg
# Mus musculus [14] = test: Anti-fibrotic effect in CCl4-induced hepatic fibrosis C57BL/6 mouse model assessed as decrease in inflammatory cell infiltration at 500 ug/kg, po five times a week for 2 weeks by Masson's Trichrome staining based assay; format: functional, organism-based; settings: dose 500.0 µg/kg
# Mus musculus [15] = test: Anti-fibrotic effect in CCl4-induced hepatic fibrosis C57BL/6 mouse model assessed as inhibition of proliferation of fibrous tissue at 500 ug/kg, po five times a week for 2 weeks by Masson's Trichrome […] staining based assay; format: functional, organism-based; settings: dose 500.0 µg/kg
# Mus musculus [16] = test: Anti-fibrotic effect in CCl4-induced hepatic fibrosis C57BL/6 mouse model assessed as inhibition of collagen deposition at 500 ug/kg, po five times a week for 2 weeks by Masson's Trichrome […] staining based assay; format: functional, organism-based; settings: dose 500.0 µg/kg
# Mus musculus [17] = test: Anti-fibrotic effect in CCl4-induced hepatic fibrosis C57BL/6 mouse model assessed as inhibition of serum AST level at 500 ug/kg, po five times a week for 2 weeks; format: functional, organism-based; settings: dose 500.0 µg/kg
# Mus musculus [18] = test: Anti-fibrotic effect in CCl4-induced hepatic fibrosis C57BL/6 mouse model assessed as inhibition of serum ALT level at 500 ug/kg, po five times a week for 2 weeks; format: functional, organism-based; settings: dose 500.0 µg/kg
# Mus musculus [19] = test: Anti-fibrotic effect in CCl4-induced hepatic fibrosis C57BL/6 mouse model assessed as inhibition of serum total bile acid (TBA) level at 500 ug/kg, po five times a week for 2 weeks; format: functional, organism-based; settings: dose 500.0 µg/kg
SMILES,IC50 [2],RBA [1],other results
CCC(O)(CC)CCCOc1cccc(/C=C/c2ccc(CO)c(CO)c2)c1,> 30 µM,,RBA ([1]; filed as agonist): 48%; Activity ([3]; filed as agonist): Active; Activity [4]: Dose-Dependent Effect; Activity (Mus musculus [5]): Active; Activity (Mus musculus [6]): Active; Activity (Mus musculus [7]): Active; Activity (Mus musculus [8]): Active; Activity (Mus musculus [9]): Active; Activity (Mus musculus [10]): Active; Activity (Mus musculus [11]): Active; Activity (Mus musculus [12]): Active; Activity (Mus musculus [13]): Active; Activity (Mus musculus [14]): Active; Activity (Mus musculus [15]): Active; Activity (Mus musculus [16]): Active; Activity (Mus musculus [17]): Active; Activity (Mus musculus [18]): Active; Activity (Mus musculus [19]): Active
CCC(O)(CC)CCCCOc1ccc(CCc2ccc(CO)c(CO)c2)cc1,> 30 µM,,RBA ([1]; filed as agonist): 44.5%; Activity [3]: inactive
OCc1ccc(/C=C/c2cccc(OCCCN3CCOCC3)c2)cc1CO,> 30 µM,34.1%,
C=CCC(O)(CC=C)CCCOc1cccc(COc2ccc(CO)c(CO)c2)c1,> 30 µM,20.2%,
CCCC(Oc1ccc(CO)c(CO)c1)c1cccc(OCCCC(O)(CC)CC)c1 (centres undefined),> 30 µM,,RBA ([1]; filed as agonist): 46.2%
CCN(CC)CCCOc1ccc(/C=C/c2ccc(CO)c(CO)c2)cc1,> 30 µM,,RBA ([1]; filed as agonist): 49.7%
C=CCC(O)(CC=C)CCCOc1cccc(CCc2ccc(CO)c(CO)c2)c1,> 30 µM,35.3%,Activity [3]: inactive
CN1CCN(CCCOc2ccc(/C=C/c3ccc(CO)c(CO)c3)cc2)CC1,> 30 µM,21.4%,
OCCCCCOc1cccc(COc2ccc(CO)c(CO)c2)c1,> 30 µM,9.83%,
OCCCCCOc1ccc(CCc2ccc(CO)c(CO)c2)cc1,> 30 µM,,RBA ([1]; filed as agonist): 46.2%; Activity [3]: inactive
CCC(O)(CC)CCCCOc1ccc(/C=C/c2ccc(CO)c(CO)c2)cc1,> 30 µM,31.2%,
OCCCCCOc1cccc(/C=C/c2ccc(CO)c(CO)c2)c1,> 30 µM,5.78%,
O=C(CCCOc1cccc(COc2ccc(CO)c(CO)c2)c1)N1CCCCC1,> 30 µM,24.9%,
CCN(CC)CCCOc1cccc(/C=C/c2ccc(CO)c(CO)c2)c1,> 30 µM,,RBA ([1]; filed as agonist): 42.2%
C=CCC(O)(CC=C)CCCCCOc1cccc(COc2ccc(CO)c(CO)c2)c1,> 30 µM,,RBA ([1]; filed as agonist): 46.2%; Activity ([3]; filed as agonist): Active
CCC(O)(CC)CCOc1cccc(/C=C/c2ccc(CO)c(CO)c2)c1,> 30 µM,38.1%,
CC(C)(O)CCCCOc1ccc(CCc2ccc(CO)c(CO)c2)cc1,> 30 µM,11.6%,Activity [3]: inactive
CC(C)(O)CCCOc1cccc(CCc2ccc(CO)c(CO)c2)c1,> 30 µM,14.4%,Activity [3]: inactive
CCC(O)(CC)CCCCCOc1cccc(/C=C/c2ccc(CO)c(CO)c2)c1,> 30 µM,33.5%,
CCC(O)(CC)CCCOc1cccc(C(Oc2ccc(CO)c(CO)c2)C(C)C)c1 (centres undefined),> 30 µM,36.4%,
O=C(O)CCCOc1cccc(COc2ccc(CO)c(CO)c2)c1,> 30 µM,9.25%,
OCc1ccc(/C=C/c2ccc(OCCCN3CCOCC3)cc2)cc1CO,> 30 µM,32.4%,
C=CCC(O)(CC=C)CCCOc1cccc(/C=C/c2ccc(CO)c(CO)c2)c1,> 30 µM,,RBA ([1]; filed as agonist): 40.5%
CC(O)CCCOc1cccc(/C=C/c2ccc(CO)c(CO)c2)c1 (centres undefined),> 30 µM,8.67%,
CCC(O)(CC)CCCCCOc1cccc(COc2ccc(CO)c(CO)c2)c1,> 30 µM,3.47%,
COC(=O)CCCOc1cccc(COc2ccc(CO)c(CO)c2)c1,> 30 µM,19.6%,
CC(C)(O)CCCOc1cccc(COc2ccc(CO)c(CO)c2)c1,> 30 µM,27.2%,

SMILES,IC50 [2],RBA [1],other results
CC(C)(O)CCCCOc1cccc(COc2ccc(CO)c(CO)c2)c1,> 30 µM,9.25%,
CCC(O)(CC)CCCOc1cccc(CCc2ccc(CO)c(CO)c2)c1,> 30 µM,28.3%,Activity [3]: inactive
CC(C)(O)CCCCCOc1cccc(COc2ccc(CO)c(CO)c2)c1,> 30 µM,27.2%,
CN1CCN(C(=O)CCCOc2cccc(COc3ccc(CO)c(CO)c3)c2)CC1,> 30 µM,30.1%,
COC(=O)CCCCCOc1cccc(COc2ccc(CO)c(CO)c2)c1,> 30 µM,29.5%,
COC(=O)CCCCOc1cccc(COc2ccc(CO)c(CO)c2)c1,> 30 µM,,RBA ([1]; filed as agonist): 45.7%
OCCCCOc1cccc(/C=C/c2ccc(CO)c(CO)c2)c1,> 30 µM,11.6%,
O=C(CCCOc1cccc(COc2ccc(CO)c(CO)c2)c1)N1CCOCC1,> 30 µM,17.9%,
C=CCC(O)(CC=C)CCCCOc1ccc(CCc2ccc(CO)c(CO)c2)cc1,> 30 µM,16.2%,Activity [3]: inactive
CCC(O)(CC)CCCOc1cccc(COc2ccc(CO)c(CO)c2)c1,> 30 µM,,RBA ([1]; filed as agonist): 43.4%; Activity ([3]; filed as agonist): Active
OCCCCOc1cccc(CCc2ccc(CO)c(CO)c2)c1,> 30 µM,32.4%,Activity [3]: inactive
OCc1ccc(/C=C/c2cccc(OCCCC(O)(c3ccccc3)c3ccccc3)c2)cc1CO,> 30 µM,23.7%,
CCN(CC)CCCOc1cccc(COc2ccc(CO)c(CO)c2)c1,> 30 µM,,RBA ([1]; filed as agonist): 49.7%
CCC(O)(CC)CCCCOc1cccc(/C=C/c2ccc(CO)c(CO)c2)c1,> 30 µM,23.1%,
CCC(O)(CC)CCCCOc1cccc(COc2ccc(CO)c(CO)c2)c1,> 30 µM,35.8%,
CCn1c(C(=O)N[C@@H](C)CO)ccc1C(CC)(CC)c1ccc(OCC(O)C(C)(C)C)c(C)c1 (some centres undefined),,,Activity (Mus musculus [5]): Active; Activity (Mus musculus [6]): Active; Activity (Mus musculus [7]): Active; Activity (Mus musculus [8]): Active; Activity (Mus musculus [9]): Active; Activity (Mus musculus [10]): Active; Activity (Mus musculus [11]): Active; Activity (Mus musculus [12]): Active; Activity (Mus musculus [13]): Active; Activity (Mus musculus [14]): Active; Activity (Mus musculus [15]): Active; Activity (Mus musculus [16]): Active
CCN(CC)C(=O)CCCOc1cccc(COc2ccc(CO)c(CO)c2)c1,> 30 µM,8.67%,
OCCCCCCOc1cccc(COc2ccc(CO)c(CO)c2)c1,> 30 µM,9.25%,
OCc1ccc(/C=C/c2cccc(OCCCC(F)(F)F)c2)cc1CO,> 30 µM,30.1%,Activity ([3]; filed as agonist): Active
OCCCCOc1cccc(COc2ccc(CO)c(CO)c2)c1,> 30 µM,,RBA ([1]; filed as agonist): 41.6%
OCCCCCOc1ccc(/C=C/c2ccc(CO)c(CO)c2)cc1,> 30 µM,36.4%,
O=C(O)CCCOc1cccc(/C=C/c2ccc(CO)c(CO)c2)c1,> 30 µM,37%,
COC(=O)CCCOc1cccc(/C=C/c2ccc(CO)c(CO)c2)c1,> 30 µM,34.1%,
CCC(O)(CC)CCCOc1cccc(C(C)Oc2ccc(CO)c(CO)c2)c1 (centres undefined),> 30 µM,,RBA ([1]; filed as agonist): 45.1%
CC(C)(O)CCCOc1cccc(/C=C/c2ccc(CO)c(CO)c2)c1,> 30 µM,,RBA ([1]; filed as agonist): 44.5%
CCCCC(Oc1ccc(CO)c(CO)c1)c1cccc(OCCCC(O)(CC)CC)c1 (centres undefined),> 30 µM,,RBA ([1]; filed as agonist): 42.2%
